The structures appear in SMILES notation.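 Dose response: 5 concentrations. Exposure: 48 h. Format: 96-well plates. Endpoint: linear interpolation; highest concentration if not reached. At the GI50, growth is halved. The concentration for full growth arrest is given as TGI.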 Bounds are passed on as bounds.

Test systems include HOP-92 NSCLC; UO-31 renal; TK-10 renal; MOLT-4 leukemia; HCT-116 colon; NCI-H226 lung; SF-268 CNS; SNB-75 CNS; SK-OV-3 ovarian; SR leukemia.
Holding throughout (test): inhibition of tumour cell growth, NCI panel, 48 h

`CSc1cccc(NC(=O)OC2CCCCCCCCCCC2)c1`: the TGI in the assay on HOP-92 NSCLC was more than 100 µM; in the assay on UO-31 renal it was 22 µM; with TK-10 renal it was 75.1 µM; in the assay with MOLT-4 leukemia, more than 100 µM; in the assay on HCT-116 colon it was 38.9 µM; with NCI-H226 lung it was 61.7 µM. Further, the TGI in the assay on SF-268 CNS was more than 100 µM; in the assay with SNB-75 CNS it was more than 100 µM; with SK-OV-3 ovarian, 57.9 µM; in the assay on SR leukemia it was more than 100 µM.

`O=C(Nc1ccc(Cl)c(Cl)c1)OCCN1c2ccccc2Sc2ccccc21`: the TGI with HOP-92 NSCLC, in the assay on TK-10 renal, in the assay on MOLT-4 leukemia, in the assay with HCT-116 colon, in the assay on SF-268 CNS and in the assay with SNB-75 CNS was more than 10 µM each time. For the same compound, the TGI in the assay with SK-OV-3 ovarian and with SR leukemia was more than 10 µM each time.

`O=C(O)C1=C(C(=O)Nc2ccc(NC(=O)C3=C(C(=O)O)C4C=CC3C4)cc2)C2C=CC1C2`: the TGI with HOP-92 NSCLC, in the assay on UO-31 renal, in the assay on TK-10 renal, with MOLT-4 leukemia, in the assay with HCT-116 colon and with SF-268 CNS was more than 100 µM throughout. In addition, the TGI in the assay with SNB-75 CNS, with SK-OV-3 ovarian and in the assay on SR leukemia was more than 100 µM throughout.

Consider `CCN(CC)CCSCCCNc1c2ccc(Cl)cc2nc2ccc(OC)cc12`, for which the GI50 in the assay on HOP-92 NSCLC was 1.64 µM; in the assay with UO-31 renal, 1.27 µM; in the assay on TK-10 renal, 1.55 µM; in the assay on MOLT-4 leukemia, 0.435 µM; in the assay with HCT-116 colon, 0.488 µM; in the assay with SF-268 CNS, 1.06 µM. The GI50 was 1.28 µM in the assay on SNB-75 CNS, 1.56 µM in the assay on SK-OV-3 ovarian and 0.976 µM in the assay with SR leukemia. The TGI with HOP-92 NSCLC came to 3.41 µM; in the assay with UO-31 renal, 3.29 µM; with TK-10 renal, 3.87 µM; with MOLT-4 leukemia, 3.94 µM; in the assay on HCT-116 colon it was 2.07 µM; in the assay on SF-268 CNS, 3.01 µM. Moreover, the figures for the TGI with SNB-75 CNS, with SK-OV-3 ovarian and in the assay with SR leukemia were 2.72 µM, 3.92 µM and 4.84 µM, respectively.

As for `NCCSCCc1ccccc1`, the TGI in the assay on HOP-92 NSCLC, with UO-31 renal, with TK-10 renal, in the assay on HCT-116 colon, in the assay on NCI-H226 lung and in the assay on SF-268 CNS was more than 100 µM in each case. The TGI with SNB-75 CNS, in the assay with SK-OV-3 ovarian and in the assay on SR leukemia was more than 100 µM in each case.

As for `N#Cc1cc(S(=O)(=O)Nc2nc3ccccc3s2)c(SCc2ccccc2)cc1Cl`, the GI50 with HOP-92 NSCLC is 24.1 µM; in the assay with UO-31 renal it was 17.8 µM; with TK-10 renal it was 37.3 µM; with MOLT-4 leukemia, 27.4 µM; in the assay with HCT-116 colon, 16.1 µM; in the assay with NCI-H226 lung, 31 µM. The results for the GI50 in the assay with SF-268 CNS, in the assay on SNB-75 CNS and in the assay with SR leukemia were 24.7 µM, 26.2 µM and 37.7 µM, respectively. Moreover, the TGI with HOP-92 NSCLC was found to be 43.3 µM; in the assay on UO-31 renal it was 42.1 µM; in the assay on TK-10 renal, 97.5 µM; in the assay with MOLT-4 leukemia, 74.4 µM; with HCT-116 colon, 32.5 µM; with NCI-H226 lung it was 94.3 µM. Moreover, the values for the TGI in the assay with SF-268 CNS, in the assay with SNB-75 CNS and in the assay with SR leukemia were 78.5 µM, 63.3 µM and more than 100 µM, respectively.

Regarding `COC1OC2COC(c3ccccc3)OC2C(O)C1Br` (stereo unspecified), the TGI in the assay with HOP-92 NSCLC, with TK-10 renal, in the assay with MOLT-4 leukemia, with HCT-116 colon, in the assay with SF-268 CNS and with SR leukemia was more than 100 µM each time.

On to `COc1ccc2c(c1OC)C(=O)c1cnccc1C2=O`, for which the TGI in the assay on HOP-92 NSCLC, in the assay on UO-31 renal, with TK-10 renal, in the assay on MOLT-4 leukemia, in the assay on HCT-116 colon and with NCI-H226 lung was more than 100 µM each time. In addition, the TGI in the assay with SNB-75 CNS, in the assay on SK-OV-3 ovarian and with SR leukemia was more than 100 µM throughout.

With `C=CS(=O)(=O)CCN1CC1`, the TGI with HOP-92 NSCLC, with TK-10 renal, with MOLT-4 leukemia, in the assay with HCT-116 colon, in the assay with SF-268 CNS and in the assay on SNB-75 CNS was more than 10 µM throughout. Further, the TGI in the assay with SK-OV-3 ovarian and in the assay with SR leukemia was more than 10 µM each time.

For the compound `O=C1C=CC(CC(=O)c2ccc3ccccc3c2)O1` (stereo unspecified), the TGI in the assay with HOP-92 NSCLC was 47 µM; in the assay with UO-31 renal, 39.2 µM; with TK-10 renal, 69.8 µM; in the assay with MOLT-4 leukemia, 65.6 µM; with HCT-116 colon it was 32.3 µM; in the assay on SF-268 CNS, 39.9 µM. Also, the TGI in the assay with SNB-75 CNS is 91.2 µM; with SK-OV-3 ovarian, more than 100 µM; in the assay with SR leukemia, 83.1 µM.

For the compound `Nn1c(N=Nc2c(O)[nH]c3c(Cl)cc(Cl)cc23)n[nH]c1=S`, the TGI in the assay with HOP-92 NSCLC, with UO-31 renal, in the assay with TK-10 renal, in the assay with MOLT-4 leukemia, in the assay with HCT-116 colon and in the assay with NCI-H226 lung was more than 100 µM each time. Further, the TGI in the assay with SF-268 CNS, in the assay with SK-OV-3 ovarian and with SR leukemia was more than 100 µM each time.

As for `CN(/N=N/c1nc(OCc2ccccc2)c2[nH]cnc2n1)C(=O)Oc1ccc([N+](=O)[O-])cc1`, the GI50 in the assay with HOP-92 NSCLC is 7.17 µM; with UO-31 renal, 6.58 µM; in the assay with TK-10 renal, 12 µM; in the assay on HCT-116 colon, 8.68 µM; in the assay on SF-268 CNS, 9.44 µM; in the assay on SK-OV-3 ovarian, 10.4 µM. Also, the GI50 in the assay on SR leukemia was 26.1 µM. For the same compound, the TGI in the assay on HOP-92 NSCLC was 26.6 µM; with UO-31 renal, 13.9 µM; in the assay on TK-10 renal, 34 µM; in the assay on HCT-116 colon it was 16 µM; in the assay on SF-268 CNS, 29.5 µM; in the assay on SK-OV-3 ovarian, 28.6 µM. For the same compound, the TGI in the assay with SR leukemia was more than 50 µM.

In the case of `O=C1CC(c2ccc(Cl)cc2)Oc2ccccc21` (stereo unspecified), the TGI with HOP-92 NSCLC was 56.5 µM; in the assay with UO-31 renal, more than 100 µM; with TK-10 renal, 63.4 µM; with HCT-116 colon it was more than 100 µM; in the assay on NCI-H226 lung, 33.6 µM; in the assay with SF-268 CNS it was more than 100 µM. Moreover, the figures for the TGI in the assay on SNB-75 CNS, with SK-OV-3 ovarian and in the assay on SR leukemia were 50.1 µM, 61 µM and 28 µM, respectively.

Values taken from PubChem BioAssay (NCI).
